Measurements reported in patent US20090239877A1, “NOVEL 1,2,4-TRIAZOLE DERIVATIVES AND PROCESS OF MANUFACTURING THEREOF” (AETERNA ZENTARIS GmbH, priority 2008, published 2009).

biological target: human GHS-R 1a (Homo sapiens, UniProt Q92847); experiment: GHS-R 1a receptor-ligand binding assay (membrane preparations from transfected LLC PK-1 cells); set-up: expressed in transfected cells; conditions: displacement of 125I-His9-ghrelin; plasma membranes of LLC PK-1 cells transiently transfected with human GHS-R 1a; mean of at least two independent experiments in triplicates
Sequence (Q92847 whole entry): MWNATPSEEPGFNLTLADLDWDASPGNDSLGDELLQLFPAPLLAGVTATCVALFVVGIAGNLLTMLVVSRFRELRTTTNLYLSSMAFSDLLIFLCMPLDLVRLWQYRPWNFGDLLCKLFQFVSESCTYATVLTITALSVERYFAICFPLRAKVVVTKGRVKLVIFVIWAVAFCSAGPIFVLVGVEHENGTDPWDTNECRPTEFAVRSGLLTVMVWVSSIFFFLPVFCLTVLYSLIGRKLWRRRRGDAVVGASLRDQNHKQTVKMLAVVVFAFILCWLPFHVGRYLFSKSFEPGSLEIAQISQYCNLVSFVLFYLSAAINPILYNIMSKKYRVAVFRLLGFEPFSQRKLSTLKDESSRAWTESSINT
Method: II) GHS-R 1a Receptor-Ligand Binding Assay (Membrane Preparations from Transfected LLC PK-1 Cells)
The GHS-R 1a receptor binding/affinity studies were performed according to Guerlavais et al. (J. Med. Chem. 2003, 46: 1191-1203).
Isolated plasma membranes from LLC PK-1 cells, a renal epithelial cell line originally derived from porcine kidneys (ECACC No. 86121112) (10 μg of protein), that were transiently transfected with human GHS-R 1a cDNA (Guerlavais et al., J. Med. Chem. 2003, 46: 1191-1203), were incubated in homogenization buffer HB [50 mM Tris (pH 7.3), 5 mM MgCl2, 2.5 mM EDTA, and 30 μg/mL bacitracin (Sigma)] for 60 min at 25° C. (steady-state conditions) with […] ^125I-His^9-ghrelin (Amersham) in the presence or absence of competing compounds (compounds of the invention).
Nonspecific binding was defined using an excess (10^−6 M) of ghrelin. The binding reaction was stopped by addition of 4 mL of ice-cold HB followed by rapid filtration over Whatman GP/C filters presoaked with 0.5% polyethyleneimine to prevent excessive binding of radioligand to the filters. Filters were rinsed three times with 3 mL of icecold wash buffer [50 mM Tris (pH 7.3), 10 mM MgCl2, 2.5 mM EDTA, and 0.015% (w/v) X-100 Triton], and the radioactivity bound to membranes was measured in a gammacounter (Kontron Analytical Gamma Matic, Automatic gamma counting system).
The concentration of test compounds required to inhibit radiolabelled ghrelin binding by 50% (IC50) was determined by fitting competitive binding curves using non-linear regression (PRISM 3.0, Graph Pad San Diego, USA).
In the following table 2 results obtained for selected compounds of the invention are presented in comparison to an example of the prior art. IC50 values given are the mean of at least two independent experiments performed in triplicates.

Row | IC50 [nM] | SMILES
1 | 107 | O=C(N[C@H](Cc1c[nH]c2ccccc12)c1nnc(CCCc2c[nH]c3ccccc23)n1Cc1cccc2ccccc12)c1cnccn1 [Compound 51, N-((R)-1-(5-(3-(1H-indol-3-yl)propyl)-4-((naphthalen-1-yl)methyl)-4H-1,2,4-triazol-3-yl)-2-(1H-indol-3-yl)ethyl)pyrazine-2-carboxamide]
2 | 126 | NCCCC(=O)N[C@H](Cc1c[nH]c2ccccc12)c1nnc(CCCc2c[nH]c3ccccc23)n1Cc1cccc2ccccc12 [Compound 69, N-((R)-1-(5-(3-(1H-indol-3-yl)propyl)-4-((naphthalen-1-yl)methyl)-4H-1,2,4-triazol-3-yl)-2-(1H-indol-3-yl)ethyl)-4-aminobutanamide]
3 | 1 | COc1ccc(Cn2c(CCc3c[nH]c4ccccc34)nnc2[C@@H](Cc2ccc3ccccc3c2)NC(=O)c2ccccn2)cc1 [Compound 58, N-((R)-1-(5-(2-(1H-indol-3-yl)ethyl)-4-(4-methoxybenzyl)-4H-1,2,4-triazol-3-yl)-2-(naphthalen-2-yl)ethyl)picolinamide]
4 | 430 | O=C(N[C@H](Cc1c[nH]c2ccccc12)c1nnc(Cc2ccccc2)n1Cc1ccc(Cl)c(Cl)c1)c1cnccn1 [Compound 38, N-((R)-1-(4-(3,4-dichlorobenzyl)-5-benzyl-4H-1,2,4-triazol-3-yl)-2-(1H-indol-3-yl)ethyl)pyrazine-2-carboxamide]
5 | 0.7 | COc1ccc(Cn2c(CCc3ccccc3)nnc2[C@@H](Cc2ccc3ccccc3c2)NC(=O)c2ccccn2)cc1 [Compound 57, N-((R)-1-(4-(4-methoxybenzyl)-5-phenethyl-4H-1,2,4-triazol-3-yl)-2-(naphthalen-2-yl)ethyl)picolinamide]
6 | 48 | O=C(Cc1ccccn1)N[C@H](Cc1c[nH]c2ccccc12)c1nnc(CCc2c[nH]c3ccccc23)n1Cc1ccc(Cl)c(Cl)c1 [Compound 52, N-((R)-1-(5-(2-(1H-indol-3-yl)ethyl)-4-(3,4-dichlorobenzyl)-4H-1,2,4-triazol-3-yl)-2-(1H-indol-3-yl)ethyl)-2-(pyridin-2-yl)acetamide]
7 | 2.2 | COc1ccc(Cn2c(CCc3ccccc3)nnc2[C@@H](Cc2cccc3ccccc23)NC(=O)C2CCNCC2)cc1 [Compound 78, N-((R)-1-(4-(4-methoxybenzyl)-5-phenethyl-4H-1,2,4-triazol-3-yl)-2-(naphthalen-1-yl)ethyl)piperidine-4-carboxamide]
8 | 92 | O=C(N[C@H](Cc1c[nH]c2ccccc12)c1nnc(CCc2ccccc2)n1CCc1ccccc1)C1CCNCC1 [Compound 71, N-((R)-2-(1H-indol-3-yl)-1-(4,5-diphenethyl-4H-1,2,4-triazol-3-yl)ethyl)piperidine-4-carboxamide]
9 | 198 | O=C(N[C@H](Cc1c[nH]c2ccccc12)c1nnc(CCc2ccccc2)n1CCc1ccccc1)c1ccccn1 [Compound 64, N-((R)-2-(1H-indol-3-yl)-1-(4,5-diphenethyl-4H-1,2,4-triazol-3-yl)ethyl)picolinamide]
10 | 0.27 | NCCCC(=O)N[C@H](Cc1c[nH]c2ccccc12)c1nnc(CCc2c[nH]c3ccccc23)n1Cc1cccc2ccccc12 [Compound 67, N-((R)-1-(5-(2-(1H-indol-3-yl)ethyl)-4-((naphthalen-1-yl)methyl)-4H-1,2,4-triazol-3-yl)-2-(1H-indol-3-yl)ethyl)-4-aminobutanamide]
11 | 143 | O=C(N[C@H](Cc1c[nH]c2ccccc12)c1nnc(CCCc2c[nH]c3ccccc23)n1Cc1cccc2ccccc12)C1CCOCC1 [Compound 46, N-((R)-1-(5-(3-(1H-indol-3-yl)propyl)-4-((naphthalen-1-yl)methyl)-4H-1,2,4-triazol-3-yl)-2-(1H-indol-3-yl)ethyl)-tetrahydro-2H-pyran-4-carboxamide]
12 | 29 | O=C(N[C@H](Cc1c[nH]c2ccccc12)c1nnc(CCCc2c[nH]c3ccccc23)n1Cc1cccc2ccccc12)c1ccccn1 [Compound 45, N-((R)-1-(5-(3-(1H-indol-3-yl)propyl)-4-((naphthalen-1-yl)methyl)-4H-1,2,4-triazol-3-yl)-2-(1H-indol-3-yl)ethyl)picolinamide]
13 | 707 | O=C(N[C@H](Cc1c[nH]c2ccccc12)c1nnc(CCc2ccccc2)n1CCc1ccccc1)C1CCCCC1 [Compound 62, N-((R)-2-(1H-indol-3-yl)-1-(4,5-diphenethyl-4H-1,2,4-triazol-3-yl)ethyl)cyclohexane-carboxamide]
14 | 158 | O=C(N[C@H](Cc1c[nH]c2ccccc12)c1nnc(CCc2c[nH]c3ccccc23)n1Cc1ccc(Cl)c(Cl)c1)C1CCCN1 (stereo partly drawn) [Compound 53, N-((R)-1-(5-(2-(1H-indol-3-yl)ethyl)-4-(3,4-dichlorobenzyl)-4H-1,2,4-triazol-3-yl)-2-(1H-indol-3-yl)ethyl)pyrrolidine-2-carboxamide]
15 | 13.7 | COc1ccc(Cn2c(CCc3ccccc3)nnc2[C@@H](Cc2ccc3ccccc3c2)NC(=O)C(C)(C)N)cc1 [Compound 55, N-((R)-1-(4-(4-methoxybenzyl)-5-phenethyl-4H-1,2,4-triazol-3-yl)-2-(naphthalen-2-yl)ethyl)-2-amino-2-methylpropanamide]
16 | 1.45 | COc1ccc(Cn2c(CCc3ccccc3)nnc2[C@@H](Cc2cccc3ccccc23)NC(=O)c2ccccn2)cc1 [Compound 79, N-((R)-1-(4-(4-methoxybenzyl)-5-phenethyl-4H-1,2,4-triazol-3-yl)-2-(naphthalen-1-yl)ethyl)picolinamide]
17 | 0.3 | COc1ccc(Cn2c(CCc3ccccc3)nnc2[C@@H](Cc2ccc3ccccc3c2)NC(=O)C2CCNCC2)cc1 [Compound 54, N-((R)-1-(4-(4-methoxybenzyl)-5-phenethyl-4H-1,2,4-triazol-3-yl)-2-(naphthalen-2-yl)ethyl)piperidine-4-carboxamide]
18 | 18.8 | COc1ccc(Cn2c(CCc3ccccc3)nnc2[C@@H](Cc2cccc3ccccc23)NC(=O)C2CCCN2)cc1 (stereo partly drawn) [Compound 80, N-((R)-1-(4-(4-methoxybenzyl)-5-phenethyl-4H-1,2,4-triazol-3-yl)-2-(naphthalen-1-yl)ethyl)pyrrolidine-2-carboxamide]
19 | 182 | NCCCC(=O)N[C@H](Cc1c[nH]c2ccccc12)c1nnc(CCc2ccccc2)n1Cc1cccc2ccccc12 [Compound 68, N-((R)-2-(1H-indol-3-yl)-1-(4-((naphthalen-1-yl)methyl)-5-phenethyl-4H-1,2,4-triazol-3-yl)ethyl)-4-aminobutanamide]
20 | 12.3 | COc1ccc(Cn2c(CCc3ccccc3)nnc2[C@@H](Cc2cccc3ccccc23)NC(=O)C(C)(C)N)cc1 [Compound 77, N-((R)-1-(4-(4-methoxybenzyl)-5-phenethyl-4H-1,2,4-triazol-3-yl)-2-(naphthalen-1-yl)ethyl)-2-amino-2-methylpropanamide]
21 | 95 | O=C(N[C@H](Cc1c[nH]c2ccccc12)c1nnc(CCc2ccccc2)n1Cc1ccc(-c2ccccc2)cc1)C1CCNCC1 [Compound 74, N-((R)-1-(4-(4-phenylbenzyl)-5-phenethyl-4H-1,2,4-triazol-3-yl)-2-(1H-indol-3-yl)ethyl)piperidine-4-carboxamide]
22 | 20.9 | O=C(Cc1ccccn1)N[C@H](Cc1c[nH]c2ccccc12)c1nnc(CCCc2c[nH]c3ccccc23)n1Cc1cccc2ccccc12 [Compound 40, N-((R)-1-(5-(3-(1H-indol-3-yl)propyl)-4-((naphthalen-1-yl)methyl)-4H-1,2,4-triazol-3-yl)-2-(1H-indol-3-yl)ethyl)-2-(pyridin-2-yl)acetamide]
